Data: patent publication US8084478B2, “Substituted 5- phenylamino- 1, 3, 4-oxadiazol-2-ylcarbonylamino-4-phenoxy-cyclohexane carboxylic acid as inhibitors of acetyl coenzyme A diacylglycerol acyltransferase” (AsstraZeneca AB, priority 2006, dated 2011)
pIC50: −log10 of the molar value.

Experiments:
ACAT = ACAT enzyme assay; selectivity for DGAT over ACAT; format: biochemical; details: DGAT vs ACAT enzyme assays
Experimental: 3) The ability of compounds to inhibit ACAT can be measured using a modification of the enzyme assay described in Billheimer (1985) Methods in Enzymology, 111, 286-293. The test assesses the ability of a test compound to inhibit the esterification of cholesterol by measuring the amount of radiolabeled cholesteryl oleate formed from radiolabeled oleoyl CoA. Compound was incubated with 10 μg membrane protein and 267 μM cholesterol. After a 5 minute pre-incubation at 37° C. the reaction was started by adding ^14C oleoyl coenzyme A (50 μM final concentration) and incubated at 37° C. for a further 30 minutes. The reaction was stopped by adding 2-propanol:heptane (12:1). Radioactive cholesteryl ester product was separated into the organic phase by adding heptane and 1M carbonate buffer pH 9.5. ACAT activity was quantified by counting aliquots of the upper heptane layer by liquid scintillography.
The selectivity of a compound to inhibit DGAT over inhibition of ACAT may be defined as the ratio of IC50 values generated in the DGAT and ACAT enzyme assays for a particular compound.

human DGAT1 = target: T1, human DGAT1 (Homo sapiens, UniProt O75907); assay: Human Enzyme Assay (DGAT1 activity, 14C oleoyl coenzyme A, insect cell membranes); format: biochemical; details: human DGAT1 expressed in sf9 insect cell membranes
T1 construct: made in house; host or cells: Sf9 insect cells, recombinant baculovirus; membrane fraction
T1 sequence (O75907 1-488): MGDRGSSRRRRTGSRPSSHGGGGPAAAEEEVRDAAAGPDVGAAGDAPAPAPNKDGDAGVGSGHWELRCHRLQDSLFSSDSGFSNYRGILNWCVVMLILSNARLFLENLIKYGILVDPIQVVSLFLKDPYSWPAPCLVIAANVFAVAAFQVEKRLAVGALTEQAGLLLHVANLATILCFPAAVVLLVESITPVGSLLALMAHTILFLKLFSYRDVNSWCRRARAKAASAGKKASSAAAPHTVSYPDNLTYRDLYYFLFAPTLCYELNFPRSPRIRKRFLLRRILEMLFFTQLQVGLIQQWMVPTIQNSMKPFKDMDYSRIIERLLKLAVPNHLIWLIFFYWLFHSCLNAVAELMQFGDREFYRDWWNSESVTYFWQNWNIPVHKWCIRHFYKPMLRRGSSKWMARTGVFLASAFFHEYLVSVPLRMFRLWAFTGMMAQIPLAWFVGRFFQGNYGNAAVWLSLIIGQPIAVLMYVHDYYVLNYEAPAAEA
Experimental: The in vitro assay to identify DGAT1 inhibitors uses human DGAT1 expressed in insect cell membranes as the enzyme source (Proc. Natl. Acad. Sci. 1998, 95, 13018-13023). Briefly, sf9 cells were infected with recombinant baculovirus containing human DGAT1 coding sequences and harvested after 48 h. Cells were lysed by sonication and membranes isolated by centrifuging at 28000 rpm for 1 h at 4° C. on a 41% sucrose gradient. The membrane fraction at the interphase was collected, washed, and stored in liquid nitrogen.
DGAT1 activity was assayed by a modification of the method described by Coleman (Methods in Enzymology 1992, 209, 98-102). Compound at 1-10 μM was incubated with 0.4 μg membrane protein, 5 mM MgCl2, and 100 μM 1,2 dioleoyl-sn-glycerol in a total assay volume of 200 μl in plastic tubes. The reaction was started by adding ^14C oleoyl coenzyme A (30 μM final concentration) and incubated at room temperature for 30 minutes. The reaction was stopped by adding 1.5 mL 2-propanol:heptane:water (80:20:2). Radioactive triolein product was separated into the organic phase by adding 1 mL heptane and 0.5 mL 0.1 M carbonate buffer pH 9.5. DGAT1 activity was quantified by counting aliquots of the upper heptane layer by liquid scintillography.

`O=C(Nc1ccc(O[C@H]2CC[C@H](C(=O)O)CC2)cc1)c1nnc(Nc2ccc(F)cc2)o1` [Example 13, trans-4-{4-[({5-[(4-fluorophenyl)amino]-1,3,4-oxadiazol-2-yl}carbonyl)amino]phenoxy}cyclohexanecarboxylic acid] was tested. Which “selectivity to inhibit DGAT over inhibition of ACAT (ratio of IC50 values in the DGAT and ACAT enzyme assays)” value (ACAT) did it give?
Its value is 310 fold.

What about the pIC50 (human DGAT1) of the same compound?
The pIC50 was 7.77.
